Experimental findings from PMC9507378 (Advanced Science, 2022) are described below.

The subject of data set [1] is SCF production in OP9 cells. Put plainly: SCF expression (immunofluorescence, Western blot). The class given is cell-based. Conditions: 25 µg mL^−1 5-FU, 24 h; n = 3. The method, then: staining buffer (2% FBS in PBS), then immunofluorescent staining was performed for later flow cytometry (PE anti-γ-H2AX, Biolegend, 1:20).
Western blotting: The total protein was extracted using Total Protein Extraction Kit (KeyGEN, Jiangsu, China) according to the standard protocol. After protein extraction and boiling denaturation, the proteins were separated using 10-15% SDS-PAGE and transferred to PVDF membranes. Then the samples were blocked with blocking buffer (QuickBlock™ Blocking Buffer, Beyotime Biotechnology, Shanghai, China) for 15min, and then incubated with related primary antibodies (anti-GAPDH, CST, 1:1000; anti-Bcl-2, CST, […]; anti-Bax, CST; anti-Caspase-3, […]
1:500; anti-γ-H2AX, abcam, 1:5000) overnight at 4 ℃. At the second day, the samples were incubated with related secondary antibodies for 1h and detected using Gel & Blot Imaging system (ChemiDoc MP, Bio-Rad, USA). […]
another 24-h 5-FU treatment. […] Finally, the samples were detected using fluorescence confocal microscope (FV3000, Olympus, Japan).
Plasma pharmacokinetics: Plasma pharmacokinetics experiment was performed to investigate the in vivo metabolism of tFNAs and OGP-tFNAs. tFNAs-Cy5 and OGP-tFNAs-Cy5 were administrated via tail vein injection. […] Finally, the blood samples were detected using the channel of Cy5 fluorescence of Gel & Blot Imaging system (ChemiDoc MP, Bio-Rad, USA). […]

Data set [2] relates to OP9 cells. Description: Apoptosis by flow cytometry (Annexin V-FITC/PI). The class given is cell-based. Conditions: 5-FU group, 25 µg mL^−1, 24 h. (Flow cytometry measures light scatter and fluorescence of single cells or particles in a stream.)
Protocol: Cell cycle, senescence and apoptosis detection: Cell cycle and apoptosis were detected via flow cytometric analysis. OP9 cells were cultured in 6-well plates and
treatment (25 μg/mL). […] The cell apoptosis was detected using Annexin V-FITC/PI apoptosis detection kit (KeyGEN, Jiangsu, China).
In data set [3] the test system is OP9 cells. Put plainly: CCK-8 cell viability assay. The class given is cell-based. To be noted: 48 h, CCK-8, n = 6, tested 6.25 to 100 µg mL^−1, read-out: concentration showing the median inhibitory effect on OP9 cells. The method, then: macropinocytosis, actin microfilament, and microtubule. The OP9 cells were pretreated with five inhibitors separately in 2% FBS culture media for 1 h, then the culture media was replaced with new culture media simultaneously containing OGP-tFNAs-Cy5 and different inhibitors for another 6 h. After that, the samples were collected for flow cytometric analysis and confocal microscopy observation for fluorescence intensity detection.
Cell viability assay: Cell Counting Kit-8 (CCK-8) assay was applied to detect the cell viability after treatment with tFNAs, OGP and OGP-tFNAs with different […]
Cell cycle, senescence and apoptosis detection: Cell cycle and apoptosis were detected via flow cytometric analysis. […]
treatment (25 μg/mL). The cell cycle was detected using cell cycle detection Kit (KeyGEN, Jiangsu, China). […] After that, the samples were rinsed with PBS and incubated with RNase for 30 min in 37℃ water-bath, then incubated with Propidium Iodide (PI) for 30min and detected via flow cytometry. The cell apoptosis was detected using Annexin V-FITC/PI apoptosis detection kit (KeyGEN, Jiangsu, China).
After the cells were collected and resuspended with 500 μL binding buffer, 5 μL Annexin V-FITC and 5 μL PI were added into the binding buffer. After 5-15 min incubation, the samples were detected via flow cytometry. […]
On the technique in general: Tetrazolium dyes change colour on reduction, which living cells bring about.

Data set [4] concerns OP9 cells. Put plainly: Cellular internalization mechanism of OGP-tFNAs with endocytosis inhibitors. The class given is cell-based. Conditions: 1 h inhibitor pretreatment in 2% FBS medium then 6 h with OGP-tFNAs-Cy5, 20 μM for Dynasore and Cytochalasin D, flow cytometry, n = 3.
Protocol: Cell culture and treatment: Bone marrow stromal OP9 cells were purchased from
National Collection of Authenticated Cell Cultures (Shanghai, China). The cells were
cultured in α-MEM with 1% penicillin-streptomycin and 20% FBS at 37 ° C in 5%
CO2. When the cell intensity approached 80%-90%, OP9 cells were recultivated in
internalization of tFNAs, and the influence of tFNAs as drug carriers on the cellular
labeled with FITC fluorescence. After the cells were treated with tFNAs-Cy5 and
harvested for flow cytometric analysis (Attune® NxT, Invitrogen, USA) and confocal
fluorescence microscopy observation (FV3000, Olympus, Japan).
(Methyl-β-cyclodextrin, MedChemExpress, USA; Dynasore, MedChemExpress, USA;
Nocodazole, MedChemExpress, USA; Amiloride hydrochloride, Abcam, USA;
Cytochalasin D, Abcam, USA) were used to inhibit the clathrin, caveolae,
A further data set concerns ICR mice. To be noted: mouse, in vivo, ip, 150 mg/kg.

Values after ≈ are worked out from the molar mass of the structure shown.

Protocol for ICR mice: 6–8 weeks male ICR mice (Dossy Experimental Animals Co, Ltd., Chengdu, China) were raised in specific pathogen‐free (SPF) environment with stable temperature and 12 h light/dark cycle.
Myelosuppression induction and systematic drug delivery: The mice were divided
into five groups: 1) Control group; 2) Saline + myelosuppression group; 3) tFNAs +
myelosuppression group. For myelosuppression groups, the mice were continuously
intraperitoneal injection (i.p.) for 3 days (days 4-6) for myelosuppression induction.
For normal group, the same volume of saline was delivered via tail intravenous
injection at days 1-9 and PBS via intraperitoneal injection at days 4-6. At day 10, all
the mice were sacrificed for later detections.
Histological detections: As main hematopoietic organs, femurs and sternums were
collected and fixed in 4% paraformaldehyde. After decalcification for 3-4 weeks in
EDTA decalcifying solution (Servicebio, Wuhan, China), the samples were
dehydrated and embedded in paraffin. Then, the samples were coronally sectioned
along the long axis of the femurs and sternums, then Hematoxylin-Eosin (H&E)
staining was performed to observe the histological changes. Meanwhile, as major

With `O=c1[nH]cc(F)c(=O)[nH]1` [5-FU, 5‐fluorouracil], the “reduction of SCF production in OP9 cells” value in data set [1] is reported as “≈ 50%”. For the same compound, the “number of dead OP9 cells” value in the data set with OP9 cells [2] is “≈ 30%”. Moreover, the IC50 with OP9 cells [3] was found to be 25 µg/mL (≈ 192 µM).

As for `C=C1[C@@H](C)[C@H]2[C@H](Cc3ccccc3)NC(=O)[C@]23[C@H](OC(C)=O)/C=C/[C@@](C)(O)C(=O)[C@@H](C)C/C=C/[C@H]3[C@@H]1O` [Cytochalasin D], in the data set on OP9 cells [4], the “inhibition of internalization of OGP-tFNAs” value is listed as “more significant inhibition ratios”.

For `O=C(N/N=C/c1ccc(O)c(O)c1)c1cc2ccccc2cc1O` [Dynasore], the “inhibition of internalization of OGP-tFNAs” value in the data set with OP9 cells [4] is given as “more significant inhibition ratios”.

As for `O=P1(N(CCCl)CCCl)NCCCO1` (stereo not drawn) [cyclophosphamide], in the data set with ICR mice, the “share of the bone marrow cavity filled by bone marrow cells” value is recorded as 20–30%.
